Results on 1 compound are retold here after patent US5726167A, “Inhibition of phosphatidylinositol 3-kinase with viridin, demethoxyviridin, viridiol, demethoxyviridiol, virone, wortmannolone, and analogs thereof” (Eli Lilly and Company, priority 1997, dated 1998).

In general, IC50 refers to the concentration needed to halve the response being measured.

The test deals with bovine brain purified PI 3-kinase. Nature of the test: Assay of purified PI 3-kinase activity. As to conditions: purified bovine brain PI 3-kinase, phosphatidylinositol substrate, 20 μM ATP. The format is biochemical. The procedure: In another, preferred, method, PI 3-kinase was prepared from bovine brain. Two bovine brains (wet weight about 900 g) were obtained from a local slaughterhouse within minutes of slaughter, packed on ice, and homogenized within one hour. Brains were trimmed of excess fat and blood vessels and then homogenized using a Tekmar Tissuemizer (Cincinnati, Ohio) at 4° C. in 20 mM of Tris(pH 8.3) containing 250 mM of sucrose, 6 mM of β-mercaptoethanol, 1 μg/ml of leupeptin, 1 μg/ml of pepstatin A, 0.4 mM of PMSF, and 1 mM of MgCl2.
Following centrifugation for 60 minutes at 10,000×g, the pH of the supernatant (about 1200 mL) was lowered to 5.75 using dropwise addition of 1M acetic acid at 4° C. After stirring for an additional 15 minutes at 4° C., the solution was centrifuged for 60 minutes at 13,500×g. The supernatant was discarded. Pellets were resuspended in Buffer A (20 mM of Tris, pH 8.3, containing 6 mM of β-mercaptoethanol, 0.1 mM of ethylene glycol-bis(β-aminoethyl ether) N,N,N',N'-tetraacetic acid (EGTA), 1 μg/mL of leupeptin, 1 μg/mL of pepstatin A, and 1 mM of MgCl2), and loaded onto a Fast Flow Q Sepharose column (300 ml) at a flow rate of 5 mL/minute at 4° C. […]
PI 3-kinase activity was measured as previously described by Matter, W. F., et al., Biochemical and Biophysical Research Communications, 186: 624-631 (1992). […]

For the compound `COC1C(=O)c2coc3c2[C@@](C)(c2ccc4c(c2C3=O)CCC4=O)[C@@H]1O` (some centres unmarked) [viridin], the “one-half maximal inhibition, IC50” value worked out at 0.85 ng/mL. For the same compound, the IC50 (molar value in brackets, read-out: one-half maximal inhibition, IC50) is 2.4 nM.
